Experimental data published in US20230250106A1, “COMPOUNDS AND COMPOSITIONS FOR TREATING CONDITIONS ASSOCIATED WITH STING ACTIVITY” (IFM Due, Inc., priority 2020, published 2023).
pEC50: −log10 of the molar value.

What follows are molecules tested on STING pathway (assay: STING reporter assay: luciferase reporter activity in THP1-Dual KO-IFNAR2 cells activated with 2'3'cGAMP). Conditions: Homo sapiens, 2'3'cGAMP 15 μM, 24 h, read-out: hSTING EC50.
Assay type: cell-based
Description: STING pathway activation by the compounds described herein was measured using THP1-Dual™ cells (KO-IFNAR2).
THP1-Dual™ KO-IFNAR2 Cells (obtained from invivogen) were maintained in RPMI, 10% FCS, 5 ml P/S, 2 mM L-glut, 10 mM Hepes, and 1 mM sodium pyruvate. Compounds were spotted in empty 384 well tissue culture plates (Greiner 781182) by Echo for a final concentration of 0.0017-100 μM. Cells were plated into the TC plates at 40 μL per well, 2×10E6 cells/mL. For activation with STING ligand, 2′3′cGAMP (MW 718.38, obtained from Invivogen), was prepared in Optimem media.
The following solutions were prepared for each 1×384 plate: • Solution A: 2 mL Optimem with one of the following stimuli: • 60 μL of 10 mM 2′3′cGAMP→150 μM stock • Solution B: 2 mL Optimem with 60 μL Lipofectamine 2000→Incubate 5 min at RT
2 mL of solution A and 2 ml Solution B was mixed and incubated for 20 min at room temperature (RT). 20 μL of transfection solution (A+B) was added on top of the plated cells, with a final 2′3′cGAMP concentration of 15 μM. The plates were then centrifuged immediately at 340 g for 1 minute, after which they were incubated at 37° C., 5% CO2,>98% humidity for 24 h. Luciferase reporter activity was then measured. EC50 values were calculated by using standard methods known in the art.
Luciferase reporter assay: 10 μL of supernatant from the assay was transferred to white 384-plate with flat bottom and squared wells. One pouch of QUANTI-Luc™ Plus was dissolved in 25 mL of water. 100 μL of QLC Stabilizer per 25 mL of QUANTI-Luc™ Plus solution was added. 50 μL of QUANTI-Luc™ Plus/QLC solution per well was then added. Luminescence was measured on a Platereader (e.g., Spectramax I3X (Molecular Devices GF3637001)).
Luciferase reporter activity was then measured. EC50 values were calculated by using standard methods known in the art.

`O=C(Nc1c[nH]c2cc(F)c(F)cc12)c1cccc(NCCCC(F)(F)F)c1` [Compound 169, N-(5,6-difluoro-1H-indol-3-yl)-3-((4,4,4-trifluorobutyl)amino)benzamide] and `Cc1ccc(C(=O)Nc2c[nH]c3cc(F)c(F)cc23)cc1OCCCC(F)(F)F` [Compound 172, N-(5,6-difluoro-1H-indol-3-yl)-4-methyl-3-(4,4,4-trifluorobutoxy)benzamide] fall in the same range of pEC50: 6.00 to 6.70 for the first, 6.00 to 6.70 for the second.

Compared with `O=C(Nc1c[nH]c2cc(F)c(F)cc12)c1cc(CCO)cc(C(F)(F)F)c1` [Compound 279, N-(5,6-difluoro-1H-indol-3-yl)-3-(2-hydroxyethyl)-5-(trifluoromethyl)benzamide], `O=C(Nc1c[nH]c2cc(F)c(F)cc12)c1ccc(OCC(F)(F)F)c(F)c1` [Compound 134, N-(5,6-difluoro-1H-indol-3-yl)-3-fluoro-4-(2,2,2-trifluoroethoxy)benzamide] is higher in pEC50: 5.30 to 6.00 for the first, 6.00 to 6.70 for the second.

`O=C(Nc1c[nH]c2cc(F)c(F)cc12)c1ccc(C(O)C2CC(F)(F)C2)cc1` (centres unmarked) [Compound 233, N-(5,6-difluoro-1H-indol-3-yl)-4-((3,3-difluorocyclobutyl)(hydroxy)methyl)benzamide] and `CCOc1ccc(C(=O)Nc2c[nH]c3cc(F)c(F)cc23)cc1` [Compound 147, N-(5,6-difluoro-1H-indol-3-yl)-4-ethoxybenzamide] fall in the same range of pEC50: 6.00 to 6.70 for the first, 6.00 to 6.70 for the second.

`O=C(Nc1c[nH]c2cc(F)c(F)cc12)c1cnc(C2CC3(CC(OCC(F)(F)F)C3)C2)c(F)c1` (centres unmarked) [Compound 222, N-(5,6-difluoro-1H-indol-3-yl)-5-fluoro-6-(6-(2,2,2-trifluoroethoxy)spiro[3.3]heptan-2-yl)nicotinamide] and `O=C(Nc1c[nH]c2cc(F)c(F)cc12)c1ccc(OCCCC(F)(F)F)c(F)c1` [Compound 142, N-(5,6-difluoro-1H-indol-3-yl)-3-fluoro-4-(4,4,4-trifluorobutoxy)benzamide] fall in the same range of pEC50: 6.00 to 6.70 for the first, 6.00 to 6.70 for the second.

`O=C(Nc1c[nH]c2cc(F)c(F)cc12)c1ccnc(N2CC(F)(F)C2)c1Cl` [Compound 252, 3-chloro-N-(5,6-difluoro-1H-indol-3-yl)-2-(3,3-difluoroazetidin-1-yl)isonicotinamide] and `Cc1c(C(=O)Nc2c[nH]c3cc(F)c(F)cc23)ccnc1N1CC(F)(F)C1` [Compound 253, N-(5,6-difluoro-1H-indol-3-yl)-2-(3,3-difluoroazetidin-1-yl)-3-methylisonicotinamide] fall in the same range of pEC50: 5.30 to 6.00 for the first, 5.30 to 6.00 for the second.

`O=C(Nc1c[nH]c2cc(F)c(F)cc12)c1ccc(OC(F)F)c(OCC2CC2)c1` [Compound 127, 3-(cyclopropylmethoxy)-N-(5,6-difluoro-1H-indol-3-yl)-4-(difluoromethoxy)benzamide] and `CC(C)Oc1ccc(C(=O)Nc2c[nH]c3cc(F)c(F)cc23)cc1C#N` [Compound 120, 3-cyano-N-(5,6-difluoro-1H-indol-3-yl)-4-(propan-2-yloxy)benzamide] fall in the same range of pEC50: 6.00 to 6.70 for the first, 6.00 to 6.70 for the second.

Compared with `Cc1cc(N2CC(F)(F)C2)ncc1C(=O)Nc1c[nH]c2ccc(Cl)cc12` [Compound 272, N-(5-chloro-1H-indol-3-yl)-6-(3,3-difluoroazetidin-1-yl)-4-methylnicotinamide], `O=C(Nc1c[nH]c2cc(F)c(F)cc12)c1ccc(CN2CC(F)(F)C2)nc1` [Compound 273, N-(5,6-difluoro-1H-indol-3-yl)-6-((3,3-difluoroazetidin-1-yl)methyl)nicotinamide] is lower in pEC50: 6.00 to 6.70 for the first, 4.00 to 5.30 for the second. The first is the more potent here.

`O=C(Nc1c[nH]c2cc(F)c(F)cc12)c1ccc(OC2CN(CC(F)(F)F)C2)nc1` [Compound 246, N-(5,6-difluoro-1H-indol-3-yl)-6-((1-(2,2,2-trifluoroethyl)azetidin-3-yl)oxy)nicotinamide] and `COCCOc1ccc(C(=O)Nc2c[nH]c3cc(F)c(F)cc23)cn1` [Compound 157, N-(5,6-difluoro-1H-indol-3-yl)-6-(2-methoxyethoxy)nicotinamide] fall in the same range of pEC50: 6.00 to 6.70 for the first, 6.00 to 6.70 for the second.

`COc1ccc2[nH]cc(NC(=O)c3ccc(OCCCC(F)(F)F)c(F)c3)c2n1` [Compound 143, 3-fluoro-N-(5-methoxy-1H-pyrrolo[3,2-b]pyridin-3-yl)-4-(4,4,4-trifluorobutoxy)benzamide] and `O=C(Nc1c[nH]c2c(F)cncc12)c1ccc(OCCCC(F)(F)F)c(F)c1` [Compound 111, 3-fluoro-N-(7-fluoro-1H-pyrrolo[3,2-c]pyridin-3-yl)-4-(4,4,4-trifluorobutoxy)benzamide] fall in the same range of pEC50: 5.30 to 6.00 for the first, 5.30 to 6.00 for the second.

First: COCCNc1cc(C(=O)Nc2c[nH]c3cc(F)c(F)cc23)ccn1 [Compound 238, N-(5,6-difluoro-1H-indol-3-yl)-2-((2-methoxyethyl)amino)isonicotinamide]
Second: O=C(Nc1c[nH]c2cc(F)c(F)cc12)c1ccnc(Oc2ccccc2)c1 [Compound 263, N-(5,6-difluoro-1H-indol-3-yl)-2-phenoxypyridine-4-carboxamide]
The pEC50 of the first is lower: 4.00 to 5.30 for the first, 6.00 to 6.70 for the second. The second is the more potent here.

Compared with `O=C(Nc1c[nH]c2cc(F)c(F)cc12)c1ccc(OC2CCCC2)cc1` [Compound 168, 4-(cyclopentyloxy)-N-(5,6-difluoro-1H-indol-3-yl)benzamide], `O=C(Nc1c[nH]c2cc(F)c(F)cc12)c1ccc(C2(O)CCOCC2)cc1` [Compound 248, N-(5,6-difluoro-1H-indol-3-yl)-4-(4-hydroxytetrahydro-2H-pyran-4-yl)benzamide] is lower in pEC50: 6.00 to 6.70 for the first, 4.00 to 5.30 for the second.

`O=C(Nc1c[nH]c2cc(F)c(F)cc12)c1cccc(OC(F)(F)F)c1` [Compound 125, N-(5,6-difluoro-1H-indol-3-yl)-3-(trifluoromethoxy)benzamide] and `CC(C)Oc1ccc(C(=O)Nc2c[nH]c3cc(F)c(F)cc23)cc1C(F)(F)F` [Compound 126, N-(5,6-difluoro-1H-indol-3-yl)-4-(propan-2-yloxy)-3-(trifluoromethyl)benzamide] fall in the same range of pEC50: 6.00 to 6.70 for the first, 6.00 to 6.70 for the second.

`O=C(Nc1c[nH]c2ccc(Cl)cc12)c1ccc(N2C[C@@H]3[C@@H](COCC(F)(F)F)[C@@H]3C2)c(F)c1` [Compound 225, N-(5-chloro-1H-indol-3-yl)-3-fluoro-4-((1R,5S,6r)-6-((2,2,2-trifluoroethoxy)methyl)-3-azabicyclo[3.1.0]hexan-3-yl)benzamide] and `O=C(Nc1c[nH]c2ccc(Cl)cc12)c1cnc(N2C[C@@H]3[C@@H](COCC(F)(F)F)[C@@H]3C2)c(F)c1` [Compound 224, N-(5-chloro-1H-indol-3-yl)-5-fluoro-6-((1R,5S,6r)-6-((2,2,2-trifluoroethoxy)methyl)-3-azabicyclo[3.1.0]hexan-3-yl)nicotinamide] fall in the same range of pEC50: 6.70 to 7.40 for the first, 6.70 to 7.40 for the second.

`Cc1nc(-c2cccc(C(=O)Nc3c[nH]c4cc(F)c(F)cc34)c2)no1` [Compound 274, N-(5,6-difluoro-1H-indol-3-yl)-3-(5-methyl-1,2,4-oxadiazol-3-yl)benzamide] and `O=C(Nc1c[nH]c2cc(F)c(F)cc12)c1ccc(-c2noc(C3CC3)n2)cc1` [Compound 266, 4-(5-cyclopropyl-1,2,4-oxadiazol-3-yl)-N-(5,6-difluoro-1H-indol-3-yl)benzamide] fall in the same range of pEC50: 6.00 to 6.70 for the first, 6.00 to 6.70 for the second.

`O=C(Nc1c[nH]c2cc(F)c(F)cc12)c1ccc(CN2CC(F)(F)C2)c(F)c1` [Compound 181, N-(5,6-difluoro-1H-indol-3-yl)-4-((3,3-difluoroazetidin-1-yl)methyl)-3-fluorobenzamide] and `O=C(Nc1c[nH]c2cc(F)c(F)cc12)c1ccc(CN2CC3(C2)CC(F)(F)C3)c(F)c1` [Compound 237, N-(5,6-difluoro-1H-indol-3-yl)-4-((6,6-difluoro-2-azaspiro[3.3]heptan-2-yl)methyl)-3-fluorobenzamide] fall in the same range of pEC50: 6.00 to 6.70 for the first, 6.00 to 6.70 for the second.

First: Cc1nc(C(=O)Nc2c[nH]c3cc(F)c(F)cc23)cnc1OCC(F)(F)F [Compound 173, N-(5,6-difluoro-1H-indol-3-yl)-6-methyl-5-(2,2,2-trifluoroethoxy)pyrazine-2-carboxamide]
Second: O=C(Nc1c[nH]c2cc(F)c(F)cc12)c1ccc(OCCCC(F)(F)F)cn1 [Compound 139, N-(5,6-difluoro-1H-indol-3-yl)-5-(4,4,4-trifluorobutoxy)picolinamide]
The pEC50 of the first is lower: 5.30 to 6.00 for the first, 6.00 to 6.70 for the second. The second is the more potent here.

`O=C(Nc1c[nH]c2cc(F)c(F)cc12)c1ccc(Oc2cccnc2)cc1` [Compound 118, N-(5,6-difluoro-1H-indol-3-yl)-4-(pyridin-3-yloxy)benzamide] and `O=C(Nc1c[nH]c2cc(F)c(F)cc12)c1cc(Cc2ccc(C(F)(F)F)cc2)c(=O)[nH]n1` [Compound 105, N-(5,6-difluoro-1H-indol-3-yl)-6-oxo-5-(4-(trifluoromethyl)benzyl)-1,6-dihydropyridazine-3-carboxamide] fall in the same range of pEC50: 6.00 to 6.70 for the first, 6.00 to 6.70 for the second.

With `CC(C)(CO)CCCNc1ncc(C(=O)Nc2c[nH]c3cc(F)c(F)cc23)cc1Cl` [Compound 209, 5-chloro-N-(5,6-difluoro-1H-indol-3-yl)-6-((5-hydroxy-4,4-dimethylpentyl)amino)nicotinamide] the pEC50 was 6.00 to 6.70.
